Laboratory results from paper PMC6768323, “Adverse Maternal, Fetal, and Postnatal Effects of Hexafluoropropylene Oxide Dimer Acid (GenX) from Oral Gestational Exposure in Sprague-Dawley Rats” (Environmental Health Perspectives, 2019).

Test system: F1 Sprague-Dawley rats
Experiment: Pilot postnatal study, GD14-18 oral maternal dosing
Type: in vivo
Procedure: A single-dose level pilot study utilizing time-mated SD rats was conducted to examine the potential postnatal effects of in utero exposure to HFPO-DA from a similar dosing interval to the fetal studies (Figure 1B). The study consisted of dams exposed to oral daily dosing with either water vehicle or 125mg/kg HFPO-DA ( n=3 for each) from GD14–18. […] Dams gave birth naturally beginning on the morning of GD22 [i.e., postnatal day (PND) 0]. On PND2 all pups were sexed, weighed, and anogenital distance (AGD) was measured using a Leica MZ6 stereomicroscope (Leica Microsystems) fitted with an ocular micrometer. On PND13, the offspring were sexed, weighed, and evaluated for retention of female-like nipples/areolae. On PND27, the dams were euthanized, uterine implantation sites were scored, pups were weaned to two animals per cage by sex and treatment group, and food was changed to NTP2000 rodent diet. Beginning on PND31 for female offspring and PND41 for male offspring, individuals were evaluated daily for markers of pubertal onset, vaginal opening (VO) for females and balano-preputial separation (BPS) for males.
Beginning at PND128, adult F1 females were weighed, euthanized via decapitation, and examined via necropsy for any reproductive tract malformations and tissue weights were collected for uterus, paired ovaries, liver, paired kidneys, and visceral adipose tissue. Similarly, beginning at PND146 adult F1 males were weighed, euthanized, and examined for reproductive tract malformations and weights were collected for all relevant reproductive tissues. Male necropsy included weights of glans penis, ventral prostate, paired seminal vesicles, paired testes, paired epididymides, levator ani–bulbocavernosus (LABC), paired bulbourethral (Cowper’s) glands, paired kidneys, visceral adipose tissue, and epididymal adipose tissue. […] Total sperm counts in epididymal sections were measured using a Multisizer 3 Coulter counter (Beckman Coulter).

[1] = adult F1 female, 125 mg/kg/d, individual means
[2] = adult F1 female, 125 mg/kg/d, litter means
[3] = adult F1 male, 125 mg/kg/d, individual means
[4] = adult F1 male, 125 mg/kg/d, litter means

Q: `O=C(O)C(F)(OC(F)(F)C(F)(F)C(F)(F)F)C(F)(F)F` (stereo not shown) [HFPO-DA, Hexafluoropropylene oxide dimer acid] was tested. Which “viable pups per litter versus control dams” value (125 mg/kg) did it give?
A: equal numbers of viable pups

Q: What about the pup survival (125 mg/kg GD14-18) of the same compound?
A: no effect on pup survival

Q: And the “Female AGD on PND2” value (125 mg/kg/d, individual means)?
A: 1.5 ± 0.0 mm

Q: What about the “Female BW at VO” value (125 mg/kg/d, individual means) of the same compound?
A: 123.4 ± 2.3 g

Q: What about the “Female BW on PND27” value (125 mg/kg/d, individual means) of the same compound?
A: 79.1 ± 1.4 g

Q: What about the “Female NR on PND13” value (125 mg/kg/d, individual means) of the same compound?
A: 12.0 ± 0.0

Q: What about the “Female pup BW on PND2” value (125 mg/kg/d, individual means) of the same compound?
A: 7.5 ± 0.1 g

Q: And the “Female pup BW on PND13” value (125 mg/kg/d, individual means)?
A: 28.7 ± 0.3 g

Q: What about the “Male AGD on PND2” value (125 mg/kg/d, individual means) of the same compound?
A: 3.7 ± 0.1 mm

Q: And the “Male BW at PPS” value (125 mg/kg/d, individual means)?
A: 211.4 ± 3.7 g

Q: And the “Male BW on PND27” value (125 mg/kg/d, individual means)?
A: 81.1 ± 1.6 g

Q: And the “Male NR on PND2” value (125 mg/kg/d, individual means)?
A: 0.1 ± 0.1

Q: What about the “Male pup BW on PND2” value (125 mg/kg/d, individual means) of the same compound?
A: 7.8 ± 0.1 g

Q: What about the “Male pup BW on PND13” value (125 mg/kg/d, individual means) of the same compound?
A: 29.3 ± 0.3 g

Q: And the “Dam BW GD14” value (125 mg/kg/d, litter means)?
A: 325.5 ± 5.2 g

Q: And the “Dam BW GD18” value (125 mg/kg/d, litter means)?
A: 354.9 ± 9.0 g

Q: And the “Dam BW gain” value (125 mg/kg/d, litter means)?
A: 29.4 ± 6.0 g

Q: What about the “Female AGD on PND2” value (125 mg/kg/d, litter means) of the same compound?
A: 1.5 ± 0.1 mm

Q: What about the “Female BW at VO” value (125 mg/kg/d, litter means) of the same compound?
A: 124.3 ± 4.2 g

Q: And the “Female BW on PND27” value (125 mg/kg/d, litter means)?
A: 78.2 ± 3.5 g

Q: And the “Female NR on PND13” value (125 mg/kg/d, litter means)?
A: 12.0 ± 0.0

Q: And the “Female pup BW on PND2” value (125 mg/kg/d, litter means)?
A: 7.5 ± 0.1 g

Q: And the “Female pup BW on PND13” value (125 mg/kg/d, litter means)?
A: 28.7 ± 0.1 g

Q: And the “Male AGD on PND2” value (125 mg/kg/d, litter means)?
A: 3.7 ± 0.1 mm

Q: What about the “Male BW at PPS” value (125 mg/kg/d, litter means) of the same compound?
A: 214.6 ± 8.0 g

Q: And the “Male BW on PND27” value (125 mg/kg/d, litter means)?
A: 83.3 ± 4.7 g

Q: What about the “Male NR on PND2” value (125 mg/kg/d, litter means) of the same compound?
A: 0.1 ± 0.1

Q: What about the “Male pup BW on PND2” value (125 mg/kg/d, litter means) of the same compound?
A: 7.8 ± 0.1 g

Q: What about the “Male pup BW on PND13” value (125 mg/kg/d, litter means) of the same compound?
A: 29.5 ± 0.5 g

Q: What about the No. implants (125 mg/kg/d, litter means) of the same compound?
A: 13.0 ± 1.0

Q: What about the “No. pups on PND2” value (125 mg/kg/d, litter means) of the same compound?
A: 12.7 ± 0.7

Q: What about the “Post-implantation loss on PND2” value (125 mg/kg/d, litter means) of the same compound?
A: 2.2 ± 2.2%

Q: And the “adult female AGD and liver weight” value (125 mg/kg, individual basis)?
A: significantly smaller AGD and lower liver weight

Q: What about the “weights of right, left, paired testes, right, left, paired epididymides, epididymal adipose tissue” value (125 mg/kg, individual basis) of the same compound?
A: significantly lower tissue weights

Q: And the “female offspring body weight (PND2, PND27, at VO)” value (125 mg/kg, individual pup basis)?
A: significantly lower than controls

Q: What about the “adult female necropsy end points” value (125 mg/kg, litter means basis) of the same compound?
A: no significant differences

Q: And the “end points measured through the onset of puberty” value (125 mg/kg, litter means basis)?
A: no significant differences

Q: What about the “right epididymis tissue weight, adult males” value (125 mg/kg, litter means basis) of the same compound?
A: significantly lower

Q: What about the AGD [1] of the same compound?
A: 16.7 ± 0.7 mm

Q: And the Body weight [1]?
A: 370.3 ± 12.3 g

Q: What about the Liver [1] of the same compound?
A: 11.3 ± 0.3 g

Q: And the Paired kidneys [1]?
A: 2.1 ± 0.1 g

Q: And the Paired ovaries [1]?
A: 123.2 ± 3.6 mg

Q: What about the Uterus [1] of the same compound?
A: 635.6 ± 48.9 mg

Q: What about the Visceral adipose tissue [1] of the same compound?
A: 25.2 ± 2.4 g

Q: What about the AGD [2] of the same compound?
A: 16.8 ± 0.5 mm

Q: And the Body weight [2]?
A: 374.0 ± 25.0 g

Q: And the Liver [2]?
A: 11.4 ± 0.5 g

Q: And the Paired kidneys [2]?
A: 2.1 ± 0.1 g

Q: And the Paired ovaries [2]?
A: 122.5 ± 8.6 mg

Q: What about the Uterus [2] of the same compound?
A: 635.4 ± 74.3 mg

Q: And the Visceral adipose tissue [2]?
A: 25.1 ± 4.6 g

Q: And the Body weight [3]?
A: 676.5 ± 10.6 g

Q: And the Cauda sperm [3]?
A: 159.7 ± 4.7 106

Q: What about the Corpus/caput sperm [3] of the same compound?
A: 72.6 ± 2.3 106

Q: And the Epididymal adipose tissue [3]?
A: 7.8 ± 0.5 g

Q: What about the Glans penis [3] of the same compound?
A: 134.5 ± 3.0 mg

Q: What about the LABC [3] of the same compound?
A: 1.6 ± 0.0 g

Q: And the Left epididymis [3]?
A: 668.1 ± 10.4 mg

Q: And the Left testis [3]?
A: 1.9 ± 0.0 g

Q: And the Liver [3]?
A: 20.1 ± 0.4 g

Q: And the “Paired Cowper’s glands” value [3]?
A: 163.4 ± 5.2 mg

Q: And the Paired epididymides [3]?
A: 1331.2 ± 21.2 mg

Q: What about the Paired kidneys [3] of the same compound?
A: 3.4 ± 0.1 g

Q: What about the Paired seminal vesicles [3] of the same compound?
A: 1.8 ± 0.1 g

Q: And the Paired testes [3]?
A: 3.8 ± 0.1 g

Q: And the Right cauda [3]?
A: 310.5 ± 6.2 mg

Q: And the Right corpus/caput [3]?
A: 352.6 ± 7.1 mg

Q: And the Right epididymis [3]?
A: 663.1 ± 11.2 mg

Q: And the Right testis [3]?
A: 1.9 ± 0.0 g

Q: What about the Total epididymal sperm [3] of the same compound?
A: 185.8 ± 4.7 106

Q: What about the Ventral prostate [3] of the same compound?
A: 682.1 ± 32.7 mg

Q: What about the Visceral adipose tissue [3] of the same compound?
A: 25.8 ± 1.5 g

Q: What about the Body weight [4] of the same compound?
A: 682.6 ± 13.4 g

Q: And the Cauda sperm [4]?
A: 160.0 ± 3.4 106

Q: And the Corpus/caput sperm [4]?
A: 72.0 ± 2.8 106

Q: And the Epididymal adipose tissue [4]?
A: 8.2 ± 1.0 g

Q: And the Glans penis [4]?
A: 135.0 ± 1.5 mg

Q: What about the LABC [4] of the same compound?
A: 1.5 ± 0.1 g

Q: And the Left epididymis [4]?
A: 664.2 ± 12.5 mg

Q: And the Left testis [4]?
A: 1.9 ± 0.0 g

Q: What about the Liver [4] of the same compound?
A: 20.2 ± 0.4 g

Q: What about the “Paired Cowper’s glands” value [4] of the same compound?
A: 165.6 ± 9.7 mg

Q: And the Paired epididymides [4]?
A: 1323.7 ± 24.3 mg

Q: What about the Paired kidneys [4] of the same compound?
A: 3.4 ± 0.0 g

Q: And the Paired seminal vesicles [4]?
A: 1.8 ± 0.1 g

Q: And the Paired testes [4]?
A: 3.8 ± 0.1 g

Q: And the Right cauda [4]?
A: 309.0 ± 6.0 mg

Q: And the Right corpus/caput [4]?
A: 350.5 ± 5.9 mg

Q: What about the Right epididymis [4] of the same compound?
A: 659.5 ± 11.8 mg

Q: And the Right testis [4]?
A: 1.9 ± 0.0 g

Q: What about the Total epididymal sperm [4] of the same compound?
A: 185.6 ± 2.0 106

Q: And the Ventral prostate [4]?
A: 678.7 ± 30.1 mg

Q: What about the Visceral adipose tissue [4] of the same compound?
A: 26.8 ± 2.4 g
